# Tests used:
# human lymphocytes = experiment: in vitro non-specific lymphoproliferative response (RLP-I) to PHA, human lymphocyte cultures; format: cell-based; conditions: for RLP-I B < A, number of witness models / RLP-I B < A, percentage of witness models / RLP-I B > A, number of witness models / RLP-I B > A, percentage of witness models: Table V, PHA + BRM-BLAS (B) versus PHA (A); for number of cases with RLP-I B > A in 33-50% of the witness models / number of cases with RLP-I B > A in 67% of the witness models / number of cases with RLP-I B > A in 100% of the witness models / percentage of cases with RLP-I B > A in 33-50% of the witness models / percentage of cases with RLP-I B > A in 67% of the witness models / percentage of cases with RLP-I B > A in 100% of the witness models: Table VI, intragroup individual analysis
# Protocol: The "in vitro" lymphocyte response has been assessed in samples of circulating and peripheral venous blood from asymptomatic blood donor adults of both sexes. In general, the lymphocyte cultures include in each case six experimental models called witnesses, and incorporate progressive doses between 0.25-6.0 units (20-500 ng) of the BRM-BLAS compounds and PHA. The RLP-I of each one has been morphologically determined and is expressed in absolute values of lymphoblasts/10,000.
# Systematically, in all the cases it has been tabulated the RLP-I to the PHA, basal, of the PHA models; to the PHA+BRM-BLAS, of the "witness" models and the maximum individual response of the witness models (RMC), in each case.
# [1] = system: circulating peripheral blood lymphocytes; experiment: in vivo lymphocyte kinetics / response in asymptomatic rabbits; parameters: species or system New Zealand's albino, giant rabbits
# Source text: (§1) The pharmacodynamic study to assess the leuko-lymphocyte kinetics has been carried out in New Zealand's albino, giant, female, adult, asymptomatic (healthy) rabbits. The blood samples with EDTA (ethylene-diamino-tetraAcetic acid), non-coagulable, for the periodical weekly controls, have been obtained by aseptic puncture from the marginal vein of the outer ear. The count and the differential cytologic survey of the white series has been routinely performed in a "Coulter" (Coulter Cientifica, S.A., STKs model) differential analyzer, within the two hours following the extraction.
# Hereinafter, there is a summary of the most significant results of the preclinical protocols which include different experimental conditions, different BRM-BLAS products and doses which vary in vary of their concentration of the product, frequency and number. […]
# This study comprises three concatenated experimental situations. The first one is focused on the vicissitudes of the leuko-lymphocyte kinetics occurred during a pause, "first" moment, that takes place months after several doses, mainly of BRM-BLAS 236 (Cl) compounds and includes 30 individual assessments (6 of the group) days 0 to 39. The second "second" moment, is centered on the successive changes occurred after the administration on the 39th day of an intravenous dose of 8 u/Kg (0.6 mcg/Kg) of the BRM-BLAS 278 (Ac) compounds and includes a total of 25 individual assessments (5 of the group), days 43rd to 68th. The third one, moments "third" to "seventh", analyzes the changes induced after the intravenous administration on the 68th day of 22 u/Kg (1.8 mcg/Kg) of BRM-BLAS 320 (Ac) compounds and includes […] (6 of the group×5 times), days 75th to 287th of the study. The assessment prior to the last dose, the lymphocyte average of which is the lowest of the group during the study, has been selected as the common baseline (100%) for reference of the comparative analysis between the assessments.
# [2] = system: circulating peripheral blood leukocytes; experiment: in vivo leukocyte kinetics / response in asymptomatic rabbits; parameters: species or system New Zealand's albino, giant rabbits; conditions: s.c. 30 u/Kg
# Source text: as §1
# Hereinafter, there is a summary of the most significant results of the preclinical protocols which include different experimental conditions, different BRM-BLAS products and doses which vary in vary of their concentration of the product, frequency and number.
# The leuko-lymphocyte mean values of the group run parallelly during the study, in general above the respective basal values before the treatment to which they return in the last two assessments. They reach the higher ones 7, 16 and 20 days after the first, second and third dose, FIG. 12, FIG. 13 and Table VIII (assessments: 3, 8 and 13).
# A total number of 225 individual assessments and 45 of the group assessments have been performed, grouped in four evolutive periods moments. The "first" one includes the 40 individual assessments (8 of the group) after the two first doses, days 0 to 43rd; the "second", the 85 (17 of the group) after the third, fourth and fifth doses, days 46th to 147th; the "third", the first 50 (10 of the group) after the sixth, days 153rd to 213th, and the "fourth", the last 50 (10 of the group), days 220th to 282nd, respectively. The assessment of the group prior to the third dose (43rd day), the lymphocyte mean of which has been the lowest during the survey, has been taken as the natural reference baseline for the comparative analysis of punctual and grouped data.
# This trail is subsequent to the protocol previously described and corresponds to the "fifth" moment of the global study, FIG. 14 and FIG. 15.
# After the subcutaneous administration of a dose of 30 u/Kg (2.1 mcg/Kg) of the BRM-BLAS 278 (Cl) compounds 137 days after the sixth dose of the BRM-BLAS 320 (Ac) compounds, in the presence of high figures of the lymphocyte mean of the group, at the "fourth" moment, such figures were specifically exceeded by the 4th and 5th punctual weekly assessments of the "fifth" moment, 24th (184%) and 31st (180%) days, respectively, FIG. 14. Globally, 28% of the assessment exceed basal values by one or two standard deviations; 57% in three, and the difference is statistically in all of them. The resulting mean of the data gathered for the "fifth" moment with a 158% of the basal values, exceed those of the four previous moments, and the difference is statistically significant compared with those of the "first", "second" and "third", and exceeds that of the "first" in more than one standard deviation, FIG. 15 and (Table IX). […]
# patients = conditions: cited from earlier work; for effect on circulating granulocytes: cancer patients in the absence of a myelodepression
# Swiss mice = experiment: single-dose intraperitoneal toxicity in mice; conditions: i.p. single dose; 236 (Cl) 800 mcg/Kg, 278 (Ac) 4.2 mg/Kg, 320 (Ac) 4.8 mg/Kg, respectively
Molecule,"RLP-I B < A, number of witness models (human lymphocytes) [Num.]","RLP-I B < A, percentage of witness models (human lymphocytes) [%]","RLP-I B > A, number of witness models (human lymphocytes) [Num.]","RLP-I B > A, percentage of witness models (human lymphocytes) [%]",number of cases with RLP-I B > A in 33-50% of the witness models (human lymphocytes) [Num.],number of cases with RLP-I B > A in 67% of the witness models (human lymphocytes) [Num.],number of cases with RLP-I B > A in 100% of the witness models (human lymphocytes) [Num.],percentage of cases with RLP-I B > A in 33-50% of the witness models (human lymphocytes) [%],percentage of cases with RLP-I B > A in 67% of the witness models (human lymphocytes) [%],percentage of cases with RLP-I B > A in 100% of the witness models (human lymphocytes) [%],effect on circulating granulocytes (patients),other results
"CC(=O)N1C(=O)C(N)(C[n+]2ccccc2)CC1C(=O)O (centres unmarked) [BRM-BLAS 278 (Cl), 1-acetyl-4-ammonium-4-(1-pyridiniomethyl) pyroglutamic acid dichloride]",16,17,77,83,16,13,6,100,81,37,–,"animals with lymphocyte mean ""fifth"" versus ""first"" moment higher than three standard deviations ([1]; s.c. 30 u/Kg): 80%; animals with lymphocyte mean ""fifth"" versus ""first"" moment higher than two standard deviations ([1]; s.c. 30 u/Kg): 20%; grouped lymphocyte mean versus basal, ""fifth"" moment ([1]; s.c. 30 u/Kg, ""fifth"" moment): 158%; lymphocyte mean versus basal, 24th day ([1]; s.c. dose 30 u/Kg (2.1 mcg/Kg) 137 days after BRM-BLAS 320 (Ac), 24th day, ""fifth"" moment): 184%; lymphocyte mean versus basal, 31st day ([1]; s.c. dose 30 u/Kg (2.1 mcg/Kg) 137 days after BRM-BLAS 320 (Ac), 31st day, ""fifth"" moment): 180%; animals with leukocyte mean at ""fifth"" exceeding ""first"" moment by more than two standard deviations [2]: 40%; assessments with leukocyte mean exceeding basal by one standard deviation ([2]; ""fifth"" moment): 57%; assessments with statistically significant leukocyte difference ([2]; ""fifth"" moment): 29%"
rhMG-CSF: recombinant human Macrophage Granulocyte Colony Stimulating Factor,–,–,–,–,–,–,–,–,–,–,neutrophiles and eosinophile,"duration of the neutropenia (patients; administration prior to chemotherapy): notably reduces the duration of the neutropenia; side effects (patients; human, in vivo): fever, bone ache, pericarditis, hypotension; deaths from sepsis (patients; patients who received rhMG-CSF): 2 out of 14; systemic bacterial and viral infections (patients; severe chronic neutropenia or after transplant of bone marrow): drastically decreases systemic bacterial and viral infections"
"NC1(C[n+]2ccccc2)CC(C(=O)O)NC1=O (centres unmarked) [BRM-BLAS 236 (Ac), 4-amino-4-(1-pyridiniomethyl) pyroglutamic acid acetate]",–,–,–,–,–,12,–,100,82,–,–,"RLP-I B < A, number of witness models (human lymphocytes; acetate): 17 Num.; RLP-I B < A, percentage of witness models (human lymphocytes; acetate): 19%; RLP-I B > A, number of witness models (human lymphocytes; acetate): 73 Num.; RLP-I B > A, percentage of witness models (human lymphocytes; acetate): 81%; number of cases with RLP-I B > A in 33-50% of the witness models (human lymphocytes; acetate): 15 Num.; number of cases with RLP-I B > A in 100% of the witness models (human lymphocytes; acetate): 6 Num.; percentage of cases with RLP-I B > A in 100% of the witness models (human lymphocytes; acetate): 40%"
"CC(=O)NC1(C[n+]2ccccc2)CC(C(=O)O)N(C(C)=O)C1=O (centres unmarked) [BRM-BLAS 320 (Cl), 1-acetyl-4-acetylamino-4-(1-pyridiniomethyl) pyroglutamic acid chloride]",29,30,67,70,16,11,2,100,69,13,–,–
"CC(=O)N1C(=O)C(N)(C[n+]2ccccc2)CC1C(=O)O (centres unmarked) [BRM-BLAS 278 (Ac), 1-acetyl-4-amino-4-(1-pyridiniomethyl) pyroglutamic acid acetate]",14,26,40,74,9,6,3,100,67,33,–,"lymphocyte group mean after low dose ([1]; single i.v. low dose 8 u/Kg (0.6 mcg/Kg), fifth assessment): the group mean in the fifth assessment appears in the basal line of the histogram; tolerance / toxicity, single dose (Swiss mice): perfectly tolerated without evidences of toxicity"
"rhG-CSF: recombinant human Granulocyte Colony Stimulating Factor (protein, UniProt P09919 31-207, looked up) Granulocyte …: TPLGPASSLPQSFLLKCLEQVRKIQGDGAALQEKLVSECATYKLCHPEELVLLGHSLGIPWAPLSSCPSQALQLAGCLSQLHSGLFLYQGLLQALEGISPELGPTLDTLQLDVADFATTIWQQMEELGMAPALQPTQGAMPAFASAFQRRAGGVLVASHLQSFLEVSYRVLRHLAQP",–,–,–,–,–,–,–,–,–,–,great increase in the number of circulating (peripheral blood) polymorphonuclear neutrophile,–
